We go through 56 molecules from the PolyMetriX glass transition set.

For the molecule `*/C(C)=C(/*)SCCCCCC` (repeat unit), the glass transition temperature turned out to be 110.00 °C.

With `*=Nc1cccc(/N=C(/C=C/C(=*)c2ccccc2)c2ccccc2)c1` (repeat unit), the glass transition temperature amounted to 178.00 °C. Regarding `*CC(*)(C)C(=O)Oc1ccc(C(=O)c2ccccc2)cc1` (repeat unit), the glass transition temperature is 118.00 °C. In turn, `*CC(*)(C)C(=O)Oc1ccc(CC#N)cc1` (repeat unit) returned a glass transition temperature of 131.00 °C. `*CC(*)(C)C(=O)Oc1ccc([N+](=O)[O-])c(C)c1` (repeat unit) came in with a glass transition temperature of 101.00 °C. For `*CC(*)(C)C(=O)Oc1ccc2c(c1)CCC2` (repeat unit), the glass transition temperature stood at 113.50 °C.

The molecule `*CC(*)(C)c1ccc2ccccc2c1` (repeat unit) registered a glass transition temperature of 208.00 °C. In turn, `*CC(*)(CC(=O)OC(C)C)C(=O)OC(C)C` (repeat unit) yielded a glass transition temperature of 100.00 °C. Molecule `*CC(*)(CC(=O)OC)C(=O)OC` (repeat unit) showed a glass transition temperature of 95.00 °C. `*CC(*)(CC(=O)OC)C(=O)OC12CC3CC(CC(C3)C1)C2` (repeat unit) registered a glass transition temperature of 197.00 °C.

As for `*CC(*)(CC(=O)OC1CCC1)C(=O)OC1CCC1` (repeat unit), the glass transition temperature was determined as 60.00 °C. Regarding `*CC(*)(CC(=O)OCC1CCCCC1)C(=O)OCC1CCCCC1` (repeat unit), the glass transition temperature was determined as 83.00 °C.

Molecule `*CC(*)(CC(=O)OCCC1CCCCC1)C(=O)OCCC1CCCCC1` (repeat unit) returned a glass transition temperature of 48.00 °C. In turn, `*CC(*)(CC(=O)OCCCC)C(=O)OCCCC` (repeat unit) came in with a glass transition temperature of 24.00 °C. Next, `*CC(*)(CC(=O)OCCCC1CCCCC1)C(=O)OCCCC1CCCCC1` (repeat unit): 7.00 °C; `*CC(*)(CC(=O)OCCCCCC)C(=O)OCCCCCC` (repeat unit): -7.00 °C; `*CC(*)(CC(=O)OCCCc1ccccc1)C(=O)OCCCc1ccccc1` (repeat unit): -8.00 °C. Next, `*CC(*)(CC(=O)OCCCl)C(=O)OCCCl` (repeat unit): 43.00 °C; `*CC(*)(CC(=O)OCCOCCOC)C(=O)OCCOCCOC` (repeat unit): -40.50 °C. `*CC(*)(CC(=O)OCc1ccccc1)C(=O)OCc1ccccc1` (repeat unit) gave a glass transition temperature of 55.00 °C. The value for `*CC(*)(CC(=O)Oc1ccc(OCCC)cc1)C(=O)Oc1ccc(OCCC)cc1` (repeat unit) was 94.50 °C; that for `*CC(*)(CC)C(=O)OCC` (repeat unit) was 27.00 °C. `*CC(*)(CCC)C(=O)OC` (repeat unit) displayed a glass transition temperature of 83.50 °C.

Take `*CC(*)(CCCCCCCC)C(=O)OC` (repeat unit): the glass transition temperature came to 34.00 °C.

Take `*CC(*)(Cl)C(=O)OCCC(F)(F)C(F)(F)C(F)(F)C(F)(F)C(F)(F)C(F)(F)C(F)(F)C(F)(F)F` (repeat unit): the glass transition temperature came to 61.00 °C.

In the case of `*CC(*)(Cl)C(=O)OCCCC` (repeat unit), the glass transition temperature is 42.00 °C. For the molecule `*CC(*)(F)C(=O)OC(C(F)(F)F)C(F)(F)F` (repeat unit), the glass transition temperature amounted to 102.00 °C. `*CC(*)(F)C(=O)OCC` (repeat unit) showed a glass transition temperature of 94.00 °C.

For the molecule `*CC(*)(F)C(=O)OCC(Cl)(Cl)Cl` (repeat unit), the glass transition temperature amounted to 127.00 °C. The molecule `*CC(*)(F)C(=O)OCC(F)(F)C(F)(F)C(F)(F)F` (repeat unit) displayed a glass transition temperature of 75.00 °C. As to `*CC(*)(F)C(=O)OCC(F)(F)F` (repeat unit), the glass transition temperature worked out at 124.00 °C. `*CC(*)(F)C(=O)OCCC` (repeat unit) gave a glass transition temperature of 62.00 °C. Next, `*CC(*)(F)C(=O)OCCC(F)(F)C(F)(F)C(F)(F)C(F)(F)C(F)(F)C(F)(F)C(F)(F)C(F)(F)F` (repeat unit): 87.50 °C; `*CC(*)(F)C(=O)OCCC(F)(F)C(F)(F)C(F)(F)C(F)(F)C(F)(F)C(F)(F)F` (repeat unit): 53.00 °C; `*CC(*)(F)C(C)=O` (repeat unit): 142.00 °C. As to `*CC(*)C(=O)NC` (repeat unit), the glass transition temperature was found to be 171.00 °C. In turn, `*CC(*)C(=O)NC(C)(C)CC(C)=O` (repeat unit) showed a glass transition temperature of 72.50 °C. In turn, `*CC(*)C(=O)NCP(=O)(O)O` (repeat unit) returned a glass transition temperature of 26.00 °C. `*CC(*)C(=O)Nc1ccc(C(=O)/C=C/c2cccc(Br)c2)cc1` (repeat unit) came in with a glass transition temperature of 55.00 °C. Turning to `*CC(*)C(=O)Nc1ccc(Cl)cc1` (repeat unit), the glass transition temperature worked out at 76.00 °C. `*CC(*)C(=O)Nc1cccc(Cl)c1` (repeat unit) displayed a glass transition temperature of 70.00 °C. As for `*CC(*)C(=O)OC(F)(C(F)(F)F)C(F)(F)F` (repeat unit), the glass transition temperature worked out at 10.00 °C.

In the case of `*CC(*)C(=O)OC(F)(F)C(F)(F)C(F)(F)C(F)(F)C(F)(F)C(F)(F)C(F)(F)C(F)(F)F` (repeat unit), the glass transition temperature amounted to 9.00 °C. Next, `*CC(*)C(=O)OC([2H])([2H])[2H]` (repeat unit): 35.00 °C; `*CC(*)C(=O)OC1CC2CCC1(C)C2(C)C` (repeat unit): 100.00 °C; `*CC(*)C(=O)OCC(C)(C)C` (repeat unit): 22.00 °C. The molecule `*CC(*)C(=O)OCC(COC(=O)c1ccccc1)(COC(=O)c1ccccc1)COC(=O)c1ccccc1` (repeat unit) displayed a glass transition temperature of 48.00 °C. Molecule `*CC(*)C(=O)OCC(F)(F)C(F)(F)C(F)(F)C(F)(F)C(F)(F)C(F)(F)C(F)(F)F` (repeat unit) registered a glass transition temperature of -17.00 °C.

For `*CC(*)C(=O)OCC(F)(F)C(F)(F)F` (repeat unit), the glass transition temperature is -26.00 °C. Molecule `*CC(*)C(=O)OCC(F)(F)C(F)(F)OC(F)(F)C(F)(F)C(F)(F)F` (repeat unit) came in with a glass transition temperature of -68.00 °C.

Take `*CC(*)C(=O)OCCCCCC(=O)Oc1ccc(-c2ccc(C#N)cc2)cc1` (repeat unit): the glass transition temperature is 38.00 °C. Molecule `*CC(*)C(=O)OCCCCCCCCCCOc1cnc(-c2ccc(OC(=O)C3COC(C)(C)O3)cc2)nc1` (repeat unit) registered a glass transition temperature of 29.00 °C. Take `*CC(*)C(=O)OCCCCCCCCCOC(=O)c1ccc(OC(=O)c2ccc(C#N)cc2)cc1` (repeat unit): the glass transition temperature amounted to 15.00 °C.

`*CC(*)C(=O)OCCCCCCCCOC(=O)c1ccc(OC(=O)c2ccc(C#N)cc2)cc1` (repeat unit) returned a glass transition temperature of 15.00 °C.

For `*CC(*)C(=O)OCCCCCCCCn1c2ccccc2c2ccccc21` (repeat unit), the glass transition temperature is 12.00 °C.

Turning to `*Oc1ccc(Oc2ccc(/C(=N/c3ccc(Oc4ccc(/N=C(\c5ccccc5)c5ccc(*)cc5)cc4)cc3)c3ccccc3)cc2)cc1` (repeat unit), the glass transition temperature is 162.00 °C.
